{"source": "patent US20130295672A1", "about": "“STEM CELL CULTURE MEDIA AND METHODS” (CONSEJO SUPERIOR DE INVESTIGACIONES CIENTÍFICAS, priority 2010, published 2013)", "format_in_all_cases": "cell-based, human", "key": {"[1]": {"test_system": "HLA-I, HLA-II, CD80 and CD86 expression", "experiment": "Flow cytometry of hASC activation molecules", "details": "APRIL or BAFF activation", "description": "hASCs were harvested, stained with appropriate fluorochrome-coupled antibodies and measured by flow cytometry (BD FACS Calibur). Data were analyzed using the FlowJo program (TreeStar, Ashland, Oreg.)."}, "[2]": {"test_system": "hASC", "experiment": "BrdU incorporation assay by flow cytometry, hASC proliferation", "details": "100 ng/ml, day 6, BrdU for the last three days; control 13%", "description": "FIG. 2. APRIL and BAFF enhance hASC viability and proliferation. (A): Cell viability was assessed by the CellTiter AQueous One Solution Cell Proliferation Assay (Promega, Madison, Wis.) according to manufacturer's protocols. hASC (3.5×10^3 cells/well) were cultured for 6 days in 96-well plates with 100 ng/ml APRIL or BAFF. Absorbance (OD 490 nm) was measured in an ELISA plate reader (n=at least three experiments). Values were normalized to the absorbance of cells cultured without stimuli (100%). (B): Histograms show cell proliferation measured by a […] BrdU incorporation assay. hASC were cultured in p60 plates with 100 ng/ml APRIL or BAFF; BrdU (20 μM) was added for the last three days. At day 6, BrdU incorporation was detected by flow cytometry using an anti-BrdU antibody. Numerals indicate percentage of cells positive for BrdU and, therefore, actively proliferating. […] At day 6, BrdU incorporation was detected by flow cytometry using an anti-BrdU antibody. […]"}, "[3]": {"test_system": "ERK1/2", "experiment": "Western blot phosphorylation kinetics in stimulated hASC: ERK1/2", "details": "100 ng/ml, 10-120 min", "description": "(§1) FIG. 3. APRIL and BAFF-mediated signaling in hASC. hASC were stimulated with 100 ng/ml APRIL or BAFF (10, 30, 60, 120 min, 37° C.), placed on ice, washed with ice-cold PBS, and lysed with cell lysis buffer (Roche, Indianapolis, Ind.). Extracts were quantified by absorbance, resolved in SDS-PAGE and analyzed by immunoblot. Antibodies used were anti-phospho-Akt (Ser473), -Akt, -phospho-ERK1/2 (Thr202/Tyr204), and -ERK1/2) (BD Bioscience); secondary antibodies were horseradish peroxidase-conjugated bovine anti-rabbit and goat anti-mouse IgG. (B): Histograms show cell proliferation measured by BrdU incorporation as in (FIG. 2B), with addition of the ERK inhibitor U0126 (2.5 μM; Sigma) or the PI3K inhibitor LY294002 (10 μM; Calbiochem) to the culture on days 0 and 3. […]\n(§2) hASC were stimulated with 100 ng/ml APRIL or BAFF (10, 30, 60, 120 min, 37° C.), placed on ice, washed with ice-cold PBS, and lysed with cell lysis buffer (Roche, Indianapolis, Ind.). Extracts were quantified by absorbance, resolved in SDS-PAGE and analyzed by immunoblot. […]\n(§3) Plated hASC (1.5×10^4 cells/cm2) were stimulated with APRIL or BAFF (100 ng/ml) and lysed with lysis buffer (Roche) with protease and phosphatase inhibitors. Proteins in extracts were quantified by absorbance with the BCA protein assay kit (Pierce), and equal amounts of protein homogenate resolved in SDS-PAGE, and transferred to PVDF membranes (Millipore). […]"}, "[4]": {"test_system": "Akt", "experiment": "Western blot phosphorylation kinetics in stimulated hASC: Akt", "details": "100 ng/ml, 10-120 min", "description": "as §1, §2, §3"}, "[5]": {"test_system": "PBMC proliferation", "experiment": "Immunosuppression assay: proliferation of activated CFSE-labeled PBMC with allogeneic hASC", "details": "100 ng/ml, day 5", "description": "FIG. 4. Modulation of APRIL and BAFF in hASC. Immunosuppressive effect (A): hASC cells were cultured with 100 ng/ml APRIL (light grey bar), BAFF (dark grey bar) or no stimulus (white bar) and then stimulated with 1 μg/ml LPS or poly I:C. […] Data were acquired using a FACScalibur cytometer and analyzed using FCAP array software (BD Bioscience). (B): Immunosupression assay: Allogeneic hASCs were cultured with activated CFSE labelled PBLs at a ratio of 1:25 (hASC: PBLs) in the presence or absence of BAFF or APRIL (100 ng/ml). After 5 days cells were harvested, analyzed by flow cytometry in a FACScalibur cytometer (BD Bioscience) and acquired for CFSE. […]\nFor CFSE labeling, freshly purified PBMC (10-20×106) were washed extensively to remove FBS, resuspended in 200 μl of a 10 μM CFSE solution (Sigma), and incubated with constant shaking (37° C., 10 min) Cells were washed and cultured overnight, and one aliquot was used to set up and control FL-1 voltage for CFSE in the cytometer. […] At day 5, PBMC were harvested and cell proliferation was determined according to loss of CFSE in the FL-1 channel. Data were analyzed using Cellquest-Pro software on gated lymphocytes (based on forward scatter/side scatter properties). The percentage of proliferating lymphocytes was calculated by gating in the region (M1) of the FL-1 channel corresponding to the last 48 h of culture ([…]). […]"}, "[6]": {"test_system": "hASC", "experiment": "MTS assay (CellTiter AQueous One Solution Cell Proliferation Assay), hASC viability/growth", "details": "for hASC growth in MTS assay, considering basal growth 100%: 100 ng/ml, 6 days in culture, normalized to cells without stimuli (100%); for promotion of cell growth when ERK was inhibited: with ERK inhibitor U0126, effect kept when PI3K was inhibited", "description": "(§4) FIG. 2. APRIL and BAFF enhance hASC viability and proliferation. (A): Cell viability was assessed by the CellTiter AQueous One Solution Cell Proliferation Assay (Promega, Madison, Wis.) according to manufacturer's protocols. hASC (3.5×10^3 cells/well) were cultured for 6 days in 96-well plates with 100 ng/ml APRIL or BAFF. Absorbance (OD 490 nm) was measured in an ELISA plate reader (n=at least three experiments). Values were normalized to the absorbance of cells cultured without stimuli (100%). (B): Histograms show cell proliferation measured by a […] BrdU incorporation assay. hASC were cultured in p60 plates with 100 ng/ml APRIL or BAFF; BrdU (20 μM) was added for the last three days. At day 6, BrdU incorporation was detected by flow cytometry using an anti-BrdU antibody. Numerals indicate percentage of cells positive for BrdU and, therefore, actively proliferating. Cell viability was assessed by the CellTiter AQueous One Solution Cell Proliferation Assay (Promega, Madison, Wis.) according to manufacturer's protocols. hASC (3.5×10^3 cells/well) were cultured for 6 days in 96-well plates with 100 ng/ml APRIL or BAFF. Absorbance (OD 490 nm) was measured in an ELISA plate reader (n=at least three experiments). Values were normalized to the absorbance of cells cultured without stimuli (100%). Additionally, cell proliferation was measured by a colorimetric BrdU incorporation assay. hASC were cultured in p60 plates with 100 ng/ml APRIL or BAFF; BrdU (20 μM) was added for the last three days. At day 6, BrdU incorporation was detected by flow cytometry using an anti-BrdU antibody. Three independent MTS and BrdU assays were performed and triplicates included for each condition."}, "[7]": {"test_system": "indoleamine 2,3-dioxygenase (IDO)", "experiment": "IDO induction in hASC", "details": "BAFF/APRIL activation of hASC"}, "[8]": {"test_system": "JNK, IκBα or p38", "experiment": "Western blot phosphorylation kinetics in stimulated hASC: JNK, IκBα, p38"}, "[9]": {"test_system": "APRIL and BAFF secretion in hASC", "experiment": "ELISA of APRIL and BAFF concentrations in hASC medium", "description": "FIG. 4. Modulation of APRIL and BAFF in hASC. Immunosuppressive effect (A): hASC cells were cultured with 100 ng/ml APRIL (light grey bar), BAFF (dark grey bar) or no stimulus (white bar) and then stimulated with 1 μg/ml LPS or poly I:C. […] Data were acquired using a FACScalibur cytometer and analyzed using FCAP array software (BD Bioscience). (B): Immunosupression assay: Allogeneic hASCs were cultured with activated CFSE labelled PBLs at a ratio of 1:25 (hASC: PBLs) in the presence or absence of BAFF or APRIL (100 ng/ml). After 5 days cells were harvested, analyzed by flow cytometry in a FACScalibur cytometer (BD Bioscience) and acquired for CFSE. Percentage of proliferating cells (relative to PBLs alone) in the last two generations is shown. Mean and standard deviation of experiments with 6 different buffy coats are represented. Buffy coats were provided by the National Transfusion Centre of the Comunidad Autónoma of Madrid. PBLs were isolated by density centrifugation gradient using Ficollplaque Plus (GE Healthcare Biosciences AB, Uppsala) (C): hASC cells were cultured with IFNγ. Supernatants were collected five days later. […] IL-6 and IL-8 concentration in the medium after 48 h, was measured by the Cytometric Bead Array (CBA) immunoassay (BD Bioscience) following manufacturer instructions. Data were acquired using a FACScalibur cytometer and analyzed using FCAP array software (BD Bioscience). […] Supernatants were collected five days later. APRIL and BAFF concentrations in the medium were determined by ELISA (R&D Systems for BAFF, Bender MedSystem for APRIL)."}, "[10]": {"experiment": "MTS assay (CellTiter AQueous One Solution Cell Proliferation Assay), hASC viability/growth", "details": "human, hASC cells; no APRIL/BAFF; control 100%; read-out: basal hASC growth in MTS assay with inhibitor added to medium", "description": "as §4"}, "[11]": {"details": "10, 30, 100 ng/ml, supernatants after five days"}}}
{"molecule": "APRIL: recombinant protein from R&D Systems; TNF ligand binding BCMA and TACI", "values": [{"measurement": "effect on hASC expression of HLA-I, HLA-II, CD80 and CD86", "setting": "[1]", "result": "do not affect"}, {"measurement": "percentage of BrdU-positive cells", "setting": "[2]", "result": 27.5, "unit": "%"}, {"measurement": "phosphorylation of ERK1/2", "setting": "[3]", "result": "induced rapid phosphorylation"}, {"measurement": "phosphorylation of Akt", "setting": "[4]", "result": "induced rapid phosphorylation"}, {"measurement": "effect on ability of hASC to suppress PBMC proliferation", "setting": "[5]", "result": "did not alter"}, {"measurement": "hASC growth in MTS assay, considering basal growth 100%", "setting": "[6]", "result": 114, "unit": "%"}, {"measurement": "promotion of cell growth when ERK was inhibited", "setting": "[6]", "result": "did not promote cell growth"}, {"measurement": "induction of IDO", "setting": "[7]", "result": "did not induce"}, {"measurement": "phosphorylation of JNK, IκBα or p38", "setting": "[8]", "result": "no clear effect"}]}
{"molecule": "N#CC(=C(/N)Sc1ccccc1N)/C(C#N)=C(\\N)Sc1ccccc1N", "note": "[U0126, reference compound]", "values": [{"measurement": "decrease in basal hASC growth (MTS assay), result in words", "setting": "[6]; inhibitor added to medium, no APRIL/BAFF", "result": "but not ERK inhibitor"}]}
{"molecule": "poly I:C [reference compound]", "values": [{"measurement": "induction of APRIL or BAFF secretion by TLR ligand", "setting": "[9]; hASC activated with LPS or poly I:C", "result": "Neither ligand induced"}]}
{"molecule": "O=c1cc(N2CCOCC2)oc2c(-c3ccccc3)cccc12", "note": "[LY294002, reference compound]", "values": [{"measurement": "viability at 6 days", "setting": "[10]", "result": 60.3, "unit": "%"}]}
{"molecule": "BAFF: recombinant protein from R&D Systems; TNF ligand binding BCMA, TACI and BAFF-R", "values": [{"measurement": "effect on hASC expression of HLA-I, HLA-II, CD80 and CD86", "setting": "[1]", "result": "do not affect"}, {"measurement": "percentage of BrdU-positive cells", "setting": "[2]", "result": 29.4, "unit": "%"}, {"measurement": "phosphorylation of ERK1/2", "setting": "[3]", "result": "induced rapid phosphorylation"}, {"measurement": "phosphorylation of Akt", "setting": "[4]", "result": "induced rapid phosphorylation"}, {"measurement": "effect on ability of hASC to suppress PBMC proliferation", "setting": "[5]", "result": "did not alter"}, {"measurement": "hASC growth in MTS assay, considering basal growth 100%", "setting": "[6]", "result": 140, "unit": "%"}, {"measurement": "promotion of cell growth when ERK was inhibited", "setting": "[6]", "result": "did not promote cell growth"}, {"measurement": "induction of IDO", "setting": "[7]", "result": "did not induce"}, {"measurement": "phosphorylation of JNK, IκBα or p38", "setting": "[8]", "result": "no clear effect"}]}
{"molecule": "CXCL12: cytokine from Peprotech; enhances APRIL secretion", "values": [{"measurement": "APRIL secretion by hASC", "setting": "[9]; [11]", "result": "preferentially enhances APRIL"}]}
{"molecule": "IFN-γ: cytokine from Peprotech; inducer of BAFF (protein, UniProt P01579 24-161, looked up) Interferon gamma: QDPYVKEAENLKKYFNAGHSDVADNGTLFLGILKNWKEESDRKIMQSQIVSFYFKLFKNFKDDQSIQKSVETIKEDMNVKFFNSNKKKRDDFEKLTNYSVTDLNVQRKAIHELIQVMAELSPAAKTGKRKRSQMLFRG", "values": [{"measurement": "BAFF secretion by hASC", "setting": "[9]; [11]", "result": "promotes BAFF secretion"}]}
